Experimental data as given in patent publication US20090124644A1, “HIV INHIBITING 2-(4-CYANOPHENYLAMINO) PYRIMIDINE DERIVATIVES” (priority 2005, published 2009).

Tests used:
Assay type in all cases: cell-based
[1] = system: Strain C, mutation L100I in HIV reverse transcriptase; experiment: Antiviral spectrum, cellular assay, strain C; details: Human immunodeficiency virus 1, read-out: pEC50 C (converted)
Experimental: (§1) Because of the increasing emergence of drug resistant HIV strains, the present compounds were tested for their potency against clinically isolated HIV strains harboring several mutations. These mutations are associated with resistance to reverse transcriptase inhibitors and result in viruses that show various degrees of phenotypic cross-resistance to the currently commercially available drugs such as for instance AZT and delavirdine.
(§2) The antiviral activity of the compound of the present invention has been evaluated in the presence of wild type HIV and HIV mutants bearing mutations at the reverse transcriptase gene. The activity of the compounds is evaluated using a cellular assay and the residual activity is expressed in pEC50 values. The columns IIIB and A-G in the table list the pEC50 values against various strains IIIB, A-G.
(§3) Strain IIIB is wild type HIV-LAI strain Strain A contains mutation Y181C in HIV reverse transcriptase, Strain B contains mutation V106A in HIV reverse transcriptase, Strain C contains mutation L100I in HIV reverse transcriptase, Strain D contains mutation Y188L in HIV reverse transcriptase, Strain E contains mutations L100I and K103N in HIV reverse transcriptase, Strain F contains mutations K103N and Y181C in HIV reverse transcriptase.

[2] = system: Strain D, mutation Y188L in HIV reverse transcriptase; experiment: Antiviral spectrum, cellular assay, strain D; details: Human immunodeficiency virus 1, read-out: pEC50 D (converted)
Experimental: as §1, §2, §3

[3] = system: Strain F, mutations K103N and Y181C in HIV reverse transcriptase; experiment: Antiviral spectrum, cellular assay, strain F; details: Human immunodeficiency virus 1, read-out: pEC50 F (converted)
Experimental: as §1, §2, §3

[4] = system: Strain IIIB, wild type HIV-LAI strain; experiment: Antiviral spectrum, cellular assay, strain IIIB; details: Human immunodeficiency virus 1
Experimental: as §1, §2, §3

[5] = system: Strain B, mutation V106A in HIV reverse transcriptase; experiment: Antiviral spectrum, cellular assay, strain B; details: Human immunodeficiency virus 1, read-out: pEC50 B (converted)
Experimental: as §1, §2, §3

[6] = system: Strain E, mutations L100I and K103N in HIV reverse transcriptase; experiment: Antiviral spectrum, cellular assay, strain E; details: Human immunodeficiency virus 1, read-out: pEC50 E (converted)
Experimental: as §1, §2, §3

[7] = system: Strain A, mutation Y181C in HIV reverse transcriptase; experiment: Antiviral spectrum, cellular assay, strain A; details: Human immunodeficiency virus 1, read-out: pEC50 A (converted)
Experimental: as §1, §2, §3

SMILES | EC50 [1] [nM] | EC50 [2] [nM] | EC50 [3] [nM] | EC50 [4] [nM] | EC50 [5] [nM] | EC50 [6] [nM] | EC50 [7] [nM]
Cc1cc(C#N)cc(C)c1Nc1nc(Nc2ccc(C#N)cc2)nc(N)c1Br [Compound 1] | 0.794 | 0.794 | 3.98 | 0.631 | 0.398 | 3.98 | 3.98
N#Cc1ccc(Nc2nc(N)c(Br)c(Sc3c(C#N)cc(C#N)cc3C#N)n2)cc1 [Compound 2] | 20 | 3.98 | 20 | 3.16 | 3.16 | 7.94 | 15.8
Cc1cc(C#N)cc(C)c1[S+]([O-])c1nc(Nc2ccc(C#N)cc2)nc(N)c1Br (stereo not drawn) [Compound 3] | 1580 | 39.8 | 251 | 5.01 | 7.94 | 6310 | 79.4
